Test results: patent US20240228488A1 (TAKEDA PHARMACEUTICAL COMPANY LIMITED, priority 2021, published 2024)
pEC50: −log10 of the molar value.

Legend:
plasma kallikrein = biological target: T1, plasma kallikrein (Homo sapiens, UniProt P03952); assay: Neat human plasma assay, FXIIa contact pathway-activated, PFR-AMC substrate; assay type: biochemical; conditions: citrated human plasma 78% final, 10 nM human FXIIa, 100 μM PFR-AMC; read-out: Human Plasma Assay: IC90
T1 construct: from tissue
Procedure, shortened: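 Citrated human plasma (78% final) with compound, contact-activated by 10 nM human FXIIa in pKal buffer pH 7.5, with 100 μM PFR-AMC. Fluorescence (360/480 nm) followed 5 min at room temperature; rates versus concentration fitted by 4-parameter equation for IC50/IC90.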

[1] = biological target: human activated kallikrein enzyme (Homo sapiens, UniProt P03952); assay: Plasma kallikrein inhibition, fluorogenic PFR-AMC substrate, 500 pM activated kallikrein format; assay type: biochemical; conditions: 500 pM activated kallikrein, 300 uM PFR-AMC, 30 min preincubation, 10 min reaction; read-out: Primary Dose Response Assay: Average EC50
Procedure, shortened: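 Enzyme at 500 pM preincubated 30 min RT with inhibitors in 20 mM Tris pH 7.5, 1 mM EDTA, 150 mM NaCl, 0.1% PEG-400, 0.1% Triton X-100. Reaction started with 300 uM PFR-AMC, run 10 min RT; fluorescence read at 460 nm emission, 380 nm excitation. EC50 reported in ranges.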

T1 sequence (P03952 391-638 limits assumed): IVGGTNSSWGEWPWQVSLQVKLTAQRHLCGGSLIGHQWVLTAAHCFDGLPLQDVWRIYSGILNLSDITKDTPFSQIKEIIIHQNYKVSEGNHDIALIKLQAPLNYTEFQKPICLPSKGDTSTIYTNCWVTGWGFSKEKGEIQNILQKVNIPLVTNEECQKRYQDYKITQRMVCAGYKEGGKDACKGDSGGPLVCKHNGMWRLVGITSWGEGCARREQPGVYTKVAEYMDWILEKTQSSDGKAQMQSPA
T1 sequence (P03952 20-390 partner limits assumed): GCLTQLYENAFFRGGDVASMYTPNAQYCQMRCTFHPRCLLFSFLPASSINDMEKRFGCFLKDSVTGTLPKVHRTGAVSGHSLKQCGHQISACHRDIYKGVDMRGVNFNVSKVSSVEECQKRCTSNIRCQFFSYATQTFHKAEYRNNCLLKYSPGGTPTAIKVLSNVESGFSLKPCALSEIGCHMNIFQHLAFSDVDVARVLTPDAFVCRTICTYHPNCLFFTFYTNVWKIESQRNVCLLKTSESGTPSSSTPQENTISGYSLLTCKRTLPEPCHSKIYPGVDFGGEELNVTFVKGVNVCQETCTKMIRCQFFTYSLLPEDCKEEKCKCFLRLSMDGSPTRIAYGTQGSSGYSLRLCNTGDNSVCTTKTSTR
human activated kallikrein enzyme, sequence (P03952 391-638 limits assumed): as the sequence (P03952 391-638 limits assumed) above
human activated kallikrein enzyme, sequence (P03952 20-390 partner limits assumed): as the sequence (P03952 20-390 partner limits assumed) above

IC90 (plasma kallikrein)	pEC50 [1]	Compound
> 48000 nM	> 9.00	CC(O)c1cc(C2CC2)cn2cc(CNc3ccnc(NC(=O)[C@H]4C[C@@H]4c4cccc(Cl)c4)c3)nc12 (stereo partly drawn) [Example I-236, (1S,2S)-2-(3-chlorophenyl)-N-(4-(((6-cyclopropyl-8-(1-hydroxyethyl)imidazo[1,2-a]pyridin-2-yl)methyl)amino)pyridin-2-yl)cyclopropane-1-carboxamide]
400 to 1500 nM	> 9.00	Cc1ccnc([C@H]2C[C@@H]2C(=O)Nc2cc(NCc3cn4cc(C5CC5)cc(N5CC(=O)N(CC(F)(F)F)C5=O)c4n3)ncn2)n1 (racemic) [Example 388, rac-(1S*,2S*)-N-(6-(((6-cyclopropyl-8-(2,4-dioxo-3-(2,2,2-trifluoroethyl)imidazolidin-1-yl)imidazo[1,2-a]pyridin-2-yl)methyl)amino)pyrimidin-4-yl)-2-(4-methylpyrimidin-2-yl)cyclopropane-1-carboxamide]
< 400 nM	> 9.00	Cc1ccnc([C@H]2C[C@@H]2C(=O)Nc2cc(N[C@H](C)c3cn4cc(C5CC5)cc(N5CC(=O)N(C)C5=O)c4n3)nc(C)n2)n1 (single isomer, unassigned) [Example 456]
1500 to 10000 nM	8.00 to 9.00	CN(C)S(=O)(=O)c1cc(C2CC2)cn2cc(CNc3cc(NC(=O)[C@H]4C[C@@H]4c4cccc(Cl)c4)ncn3)nc12 [Example I-151, (1S,2S)-2-(3-chlorophenyl)-N-(6-(((6-cyclopropyl-8-(N,N-dimethylsulfamoyl)imidazo[1,2-a]pyridin-2-yl)methyl)amino)pyrimidin-4-yl)cyclopropane-1-carboxamide]
400 to 1500 nM	> 9.00	Cc1ccnc([C@H]2C[C@@H]2C(=O)Nc2cc(OCc3cn4cc(C5CC5)cc(N5CC(=O)N(CCO)C5=O)c4n3)ncn2)n1 (racemic) [Example 33, rac-(1S*,2S*)—N-(6-((6-cyclopropyl-8-(3-(2-hydroxyethyl)-2,4-dioxoimidazolidin-1-yl)imidazo[1,2-a]pyridin-2-yl)methoxy)pyrimidin-4-yl)-2-(4-methylpyrimidin-2-yl)cyclopropane-1-carboxamide]
1500 to 10000 nM	8.00 to 9.00	O=C(Nc1cc(NCc2cn3cc(C4CC4)cc(N4CCNC(C(F)(F)F)C4)c3n2)ccn1)[C@H]1C[C@@H]1c1cccc(Cl)c1 (stereo partly drawn) [Example I-21, (1S,2S)-2-(3-chlorophenyl)-N-(4-(((6-cyclopropyl-8-(3-(trifluoromethyl)piperazin-1-yl)imidazo[1,2-a]pyridin-2-yl)methyl)amino)pyridin-2-yl)cyclopropane-1-carboxamide]
< 400 nM	> 9.00	CN1CC(c2cc(C3CC3)cn3cc(CNc4ccnc(NC(=O)[C@H]5C[C@@H]5c5cccc(Cl)c5)c4)nc23)C1 [Example 609, (1S,2S)-2-(3-chlorophenyl)-N-(4-(((6-cyclopropyl-8-(1-methylazetidin-3-yl)imidazo[1,2-a]pyridin-2-yl)methyl)amino)pyridin-2-yl)cyclopropane-1-carboxamide]
< 400 nM	> 9.00	CN1CC(O)(c2cc(C3CC3)cn3cc(CNc4cc(NC(=O)[C@H]5C[C@@H]5c5cccc(Cl)c5)ncn4)nc23)C1 [Example I-198, (1S,2S)-2-(3-chlorophenyl)-N-(6-(((6-cyclopropyl-8-(3-hydroxy-1-methylazetidin-3-yl)imidazo[1,2-a]pyridin-2-yl)methyl)amino)pyrimidin-4-yl)cyclopropane-1-carboxamide]
400 to 1500 nM	> 9.00	CS(=O)(=O)c1cc(C2CC2)cn2cc(CNc3ccnc(NC(=O)[C@H]4C[C@@H]4c4cccc(Cl)c4)c3)nc12 [Example I-235, (1S,2S)-2-(3-chlorophenyl)-N-(4-(((6-cyclopropyl-8-(methylsulfonyl)imidazo[1,2-a]pyridin-2-yl)methyl)amino)pyridin-2-yl)cyclopropane-1-carboxamide]
400 to 1500 nM	> 9.00	Cc1ccnc([C@H]2C[C@@H]2C(=O)Nc2cc(NCc3cn4cc(C5CC5)cc(N5CC(=O)N(C)C5=O)c4n3)nc(CF)n2)n1 (racemic) [Example 353, rac-(1S*,2S*)—N-(6-(((6-cyclopropyl-8-(3-methyl-2,4-dioxoimidazolidin-1-yl)imidazo[1,2-a]pyridin-2-yl)methyl)amino)-2-(fluoromethyl)pyrimidin-4-yl)-2-(4-methylpyrimidin-2-yl)cyclopropane-1-carboxamide]
< 400 nM	> 9.00	O=C(Nc1cc(NCc2cn3cc(C4CC4)cc(C4CNC4)c3n2)ccn1)[C@H]1C[C@@H]1c1cccc(Cl)c1 [Example 284, (1S,2S)—N-(4-(((8-(azetidin-3-yl)-6-cyclopropylimidazo[1,2-a]pyridin-2-yl)methyl)amino)pyridin-2-yl)-2-(3-chlorophenyl)cyclopropane-1-carboxamide]
400 to 1500 nM	> 9.00	Cc1ccc(C#N)c([C@H]2C[C@@H]2C(=O)Nc2cc(NCc3cn4cc(C5CC5)cc(N5CC(=O)N(C)C5=O)c4n3)ncn2)n1 (racemic) [Example I-166, rac-(1S*,2S*)-2-(3-cyano-6-methylpyridin-2-yl)-N-(6-(((6-cyclopropyl-8-(3-methyl-2,4-dioxoimidazolidin-1-yl)imidazo[1,2-a]pyridin-2-yl)methyl)amino)pyrimidin-4-yl)cyclopropane-1-carboxamide]
1500 to 10000 nM	8.00 to 9.00	Cc1ccnc([C@H]2C[C@@H]2C(=O)Nc2cc(N(CC(=O)OCc3ccccc3)Cc3cn4cc(C5CC5)cc(N5CC(=O)N(C)C5=O)c4n3)ncn2)n1 [Example 371, benzyl N-((6-cyclopropyl-8-(3-methyl-2,4-dioxoimidazolidin-1-yl)imidazo[1,2-a]pyridin-2-yl)methyl)-N-(6-((1S,2S)-2-(4-methylpyrimidin-2-yl)cyclopropane-1-carboxamido)pyrimidin-4-yl)glycinate]
1500 to 10000 nM	8.00 to 9.00	O=C(Nc1cc(NCc2cn3cc(C4CC4)cc(-c4ccc[nH]c4=O)c3n2)ncn1)[C@H]1C[C@@H]1c1cccc(Cl)c1 [Example 305, (1S,2S)-2-(3-chlorophenyl)-N-(6-(((6-cyclopropyl-8-(2-oxo-1,2-dihydropyridin-3-yl)imidazo[1,2-a]pyridin-2-yl)methyl)amino)pyrimidin-4-yl)cyclopropane-1-carboxamide]
< 400 nM	> 9.00	Cc1ccnc([C@H]2C[C@@H]2C(=O)Nc2cc(NCc3cn4cc(C5CC5)cc(N5CC(=O)N(CCO)C5=O)c4n3)ncn2)n1 [Example 464, (1S,2S)-N-(6-(((6-cyclopropyl-8-(3-(2-hydroxyethyl)-2,4-dioxoimidazolidin-1-yl)imidazo[1,2-a]pyridin-2-yl)methyl)amino)pyrimidin-4-yl)-2-(4-methylpyrimidin-2-yl)cyclopropane-1-carboxamide]
< 400 nM	> 9.00	CCN1CCN(c2cc(C3CC3)cn3cc(CNc4ccnc(NC(=O)[C@H]5C[C@@H]5c5cccc(Cl)c5)c4)nc23)CC1 [Example I-234, (1S,2S)-2-(3-chlorophenyl)-N-(4-(((6-cyclopropyl-8-(4-ethylpiperazin-1-yl)imidazo[1,2-a]pyridin-2-yl)methyl)amino)pyridin-2-yl)cyclopropane-1-carboxamide]
< 400 nM	> 9.00	Cc1ccnc([C@H]2C[C@@H]2C(=O)Nc2cc(N[C@H](C)c3cn4cc(C5CC5)cc(N5CCOC5=O)c4n3)ncn2)n1 [Example 534, (1S,2S)-N-(6-(((R)-1-(6-cyclopropyl-8-(2-oxooxazolidin-3-yl)imidazo[1,2-a]pyridin-2-yl)ethyl)amino)pyrimidin-4-yl)-2-(4-methylpyrimidin-2-yl)cyclopropane-1-carboxamide]
400 to 1500 nM	8.00 to 9.00	CCN(Cc1cn2cc(C3CC3)cc(N3CC(=O)N(C)C3=O)c2n1)c1cc(NC(=O)[C@H]2C[C@@H]2c2nccc(C)n2)nc(C)n1 [Example 360, (1S,2S)-N-(6-(((6-cyclopropyl-8-(3-methyl-2,4-dioxoimidazolidin-1-yl)imidazo[1,2-a]pyridin-2-yl)methyl)(ethyl)amino)-2-methylpyrimidin-4-yl)-2-(4-methylpyrimidin-2-yl)cyclopropane-1-carboxamide]
< 400 nM	> 9.00	Cc1ccnc([C@H]2C[C@@H]2C(=O)Nc2cc(OCc3cn4cc(C5CC5)cc(N5CC(=O)NC5=O)c4n3)ncn2)n1 [Example 32, (1S,2S)—N-(6-((6-cyclopropyl-8-(2,4-dioxoimidazolidin-1-yl)imidazo[1,2-a]pyridin-2-yl)methoxy)pyrimidin-4-yl)-2-(4-methylpyrimidin-2-yl)cyclopropane-1-carboxamide]
< 400 nM	> 9.00	O=C(Nc1cc(NCc2cn3cc(C4CC4)cc(C(=O)N4CCNCC4)c3n2)ncn1)[C@H]1C[C@@H]1c1cccc(Cl)c1 [Example 304, (1S,2S)-2-(3-chlorophenyl)-N-(6-(((6-cyclopropyl-8-(piperazine-1-carbonyl)imidazo[1,2-a]pyridin-2-yl)methyl)amino)pyrimidin-4-yl)cyclopropane-1-carboxamide]

Compound	IC90 (plasma kallikrein)	pEC50 [1]
CN1CCC(O)(c2cc(C3CC3)cn3cc(CNc4ccnc(NC(=O)[C@H]5C[C@@H]5c5cccc(Cl)c5)c4)nc23)CC1 [Example 488, (1S,2S)-2-(3-chlorophenyl)-N-(4-(((6-cyclopropyl-8-(4-hydroxy-1-methylpiperidin-4-yl)imidazo[1,2-a]pyridin-2-yl)methyl)amino)pyridin-2-yl)cyclopropane-1-carboxamide]	400 to 1500 nM	> 9.00
